The values below come from patent publication US8962603B2, “Method for post coital contraception in overweight or obese female subjects using ulipristal acetate” (Laboratoire HRA-Pharma, priority 2010, dated 2015).

Assay [1] relates to women requesting emergency contraception after unprotected intercourse. In words: Meta-analysis of Phase II and Phase III emergency contraception studies: pregnancy rate by WHO BMI class. The assay is classed as in vivo. The note with it: for Odds Ratio [95% CI]: ulipristal acetate vs levonorgestrel. The protocol:
The effect of BMI in pooled phase III studies was assessed by comparing pregnancy rates among sub-groups of the study populations according to WHO weight classes. Pregnancy rates increased starting from BMI>25, and for women with a BMI>30, the 95% CI of the observed pregnancy rate overlapped with the expected pregnancy rate. […] This Phase II, prospective, multicenter, randomized, double-blind study was performed to compare the efficacy of a single 50 mg dose of ulipristal acetate (unmicronized in gelatine capsule) with two 0.75 mg doses of levonorgestrel used as an emergency postcoital contraceptive within 72 hours of unprotected intercourse. The study was carried out in seven sites in seven different states in the United States. Women (aged ≧18 years old) not using hormonal contraception and who requested emergency contraception within 72 hours (3 days) after unprotected coitus defined by lack of contraceptive use, condom breakage or other barrier contraceptive method failure were included. Subjects were required to have a history of regular menstrual cycles (mean length of 24-42 days with intra-individual variation of ±5 days). At least one normal menstrual cycle (two menses) was required after delivery, abortion, or discontinuation of hormonal contraception. Subjects were excluded from the study if they were pregnant at screening or enrollment (assessed by a high-sensitivity urine pregnancy test), pregnant or breastfeeding within the 2 months before screening, using an intra-uterine device (IUD) or female or male sterilization as a contraceptive method, uncertain about the date of the last menstrual period (±3 days), had been nauseated or vomited in the 2 weeks before screening, had used oral glucocorticoid replacement therapy in the year before the screening, or were currently enrolled in any other investigational trial. Each woman returned for a follow-up visit 5 to 7 days after the expected onset of their next menstrual period and a high-sensitivity urine pregnancy test was performed. The primary objective was to compare the efficacy, as determined by pregnancy prevention, of 50 mg ulipristal acetate and levonorgestrel used as an emergency postcoital contraceptive within 72 hours of unprotected intercourse. […] This was a prospective, single-blind (subject and sponsor blind, investigator not blind), randomized, multicenter, 2-arm parallel comparative study designed to evaluate the efficacy, safety and tolerability of a single dose of ulipristal acetate (30 mg) compared to levonorgestrel (1.5 mg) administered for EC within 120 hours after unprotected intercourse. It was performed in 10 centers in Europe and 25 centers in the US. Women (aged ≧16 years), with regular menstrual cycles (between 24 and 35 days and intra-individual variations less than or equal to 5 days), who presented for EC within 120 hours after unprotected intercourse at a participating study site and who met the inclusion/exclusion criteria were enrolled into the study after they signed informed consent form. Subjects were excluded from the study in case of ongoing pregnancy or breast-feeding or current use of hormonal contraception or IUD. The study medication (ulipristal acetate 30 mg or levonorgestrel 1.5 mg) was administered according to a random allocation procedure generated electronically. Treatment was administered orally immediately after all eligibility criteria (including negative urine pregnancy test) had been verified. […] The primary objective of the study was to provide evidence that the pregnancy rate observed after taking ulipristal acetate (30 mg) within 72 hours of unprotected intercourse is lower than the expected pregnancy rate in the absence of EC. […]

The conditions of assay [2]: used within 72 hours of UPI; cited from earlier work.
For assay [3] the following is noted: in vivo; cited from earlier work.
[4] abbreviates: BMI class (WHO) Normal weight (18.5 to 24.99), N=2087.
[5] abbreviates: BMI class (WHO) Obese grade I (30 to 34.99), N=285.
The mark [6] stands for this setting: BMI class (WHO) Obese grade II (35 to 39.99), N=107.
The mark [7] stands for this setting: BMI class (WHO) Obese grade III (≧40), N=77.
Setting [8] is: BMI class (WHO) Overweight (25 to 29.99), N=744.
[9] abbreviates: BMI class (WHO) Underweight (<18.5), N=145.
Setting [10] is: grouped BMI class Obese II and more, N=184.
Where [11] appears, read: grouped BMI class Overweight & Obese I, N=1029.
[12] abbreviates: grouped BMI class Underweight & Normal, N=2232.

As for `C#C[C@]1(O)CC[C@H]2[C@@H]3CCC4=CC(=O)CC[C@@H]4[C@H]3CC[C@@]21CC` [Levonorgestrel, levonorgestrel], the Pregnancy rate in assay [1] (setting [4]) turned out to be 1.33%; in assay [1] (setting [5]), 6.71%; in assay [1] (setting [6]), 3.85%; in assay [1] (setting [7]) it was 4.88%; in assay [1] (setting [8]), 2.45%; in assay [1] (setting [9]) it was 1.43%. Further, the “Pregnancy rate” value in assay [1] (setting [10]) worked out at 4.30%; in assay [1] (setting [11]) it was 3.68%; in assay [1] (setting [12]), 1.34%.

For the compound `CC(=O)O[C@]1(C(C)=O)CC[C@H]2[C@@H]3CCC4=CC(=O)CCC4=C3[C@@H](c3ccc(N(C)C)cc3)C[C@@]21C` [Ulipristal acetate, 17α-acetoxy-11β-[4-N,N-dimethylamino-phenyl)-19-norpregna-4,9-diene-3,20-dione], the “efficacy for preventing pregnancy versus levonorgestrel” value in assay [2] is “as efficacious as levonorgestrel”. Moreover, in assay [3], the effect on ovulation result was “inhibits or delays ovulation in a dose-dependent fashion”. For the same compound, the Pregnancy rate in assay [1] (setting [4]) was determined as 1.16%; in assay [1] (setting [5]), 1.47%; in assay [1] (setting [6]), 3.64%; in assay [1] (setting [7]), 5.56%; in assay [1] (setting [8]), 1.06%; in assay [1] (setting [9]), 0%. Also, the “Pregnancy rate” value in assay [1] (setting [10]) is on record as 4.40%; in assay [1] (setting [11]) it was 1.17%; in assay [1] (setting [12]), 1.08%. Moreover, the “efficacy by BMI group” value in assay [1] (obese grade II (BMI 35 and above) subjects) was “decreased”; in assay [1] (underweight and normal (BMI below 25) and overweight and obese grade I (BMI 25-34.99) subjects), “remained constant”. In addition, the “Odds Ratio [95% CI]” value was 1.02 in assay [1] (Obese II and more, CI [0.23, 4.44], NS); 0.31 in assay [1] (Overweight & Obese I, CI [0.11, 0.74], p = 0.0073); 0.81 in assay [1] (Underweight & Normal, CI [0.37, 1.73], NS). In addition, in assay [1] (women overweight or with grade I obesity (BMI 25-34.99), p=0.0073), the “risk of pregnancy divided by (ulipristal acetate versus levonorgestrel)” value is recorded as 3. In addition, the efficacy versus levonorgestrel result in assay [1] (women with a BMI>25) is listed as “significantly more effective than levonorgestrel”.
